# Measured values taken from PubChem BioAssay (NCI).
#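 1) Cells in 96-well plates. 2) Compound, 48 h, 5 concentrations. 3) Linear interpolation between surrounding doses. 4) Unreached endpoint = highest concentration. Here, GI50 denotes the concentration required for 50% inhibition of growth. Definition used: TGI = concentration required for complete inhibition of growth.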
# Columns and labels:
# Test in all cases: growth of human tumour cells (NCI), 48 h
# [1] = test system: RPMI-8226 leukemia
# [2] = test system: NCI-H23 lung
# [3] = test system: SF-295 CNS
# [4] = test system: HT29 colon
# [5] = test system: M14 melanoma
# [6] = test system: BT-549 breast
# [7] = test system: PC-3 prostate
# [8] = test system: MDA-MB-435
# [9] = test system: LOX IMVI melanoma
# [10] = test system: HCC-2998 colon
# [11] = test system: HL-60(TB) leukemia
# [12] = test system: TK-10 renal
# [13] = test system: OVCAR-8 ovarian
# [14] = test system: RXF 393 renal
# [15] = test system: A549 NSCLC
# [16] = test system: SK-MEL-28 melanoma
# [17] = test system: IGROV1 ovarian
# [18] = test system: UO-31 renal
# [19] = test system: UACC-62 melanoma
# [20] = test system: CAKI-1 renal
# [21] = test system: NCI-H226 lung
# [22] = test system: SF-268 CNS
# [23] = test system: OVCAR-5 ovarian
# [24] = test system: MOLT-4 leukemia
# [25] = test system: OVCAR-4 ovarian
# [26] = test system: MCF7 breast
# [27] = test system: 786-0 renal
# [28] = test system: HCT-15 colon
# [29] = test system: SF-539 CNS
# [30] = test system: NCI-H522 lung
# [31] = test system: NCI-H460 lung
# [32] = test system: KM12 colon
# [33] = test system: HS 578T breast
# [34] = test system: SK-MEL-2 melanoma
# [35] = test system: A498 renal
# [36] = test system: OVCAR-3 ovarian
# [37] = test system: SN12C renal
# [38] = test system: MALME-3M melanoma
# [39] = test system: U251 CNS
# [40] = test system: MDA-MB-468 breast
# [41] = test system: SNB-19 CNS
# [42] = test system: HOP-92 NSCLC
# [43] = test system: DU-145 prostate
# [44] = test system: ACHN renal
# [45] = test system: HOP-62 NSCLC
# [46] = test system: SR leukemia
# [47] = test system: SW-620 colon
# [48] = test system: SNB-75 CNS
# [49] = test system: HCT-116 colon
# [50] = test system: K-562 leukemia
# [51] = test system: NCI/ADR-RES ovarian
# [52] = test system: EKVX NSCLC
# [53] = test system: SK-MEL-5 melanoma
# [54] = test system: T-47D breast
# [55] = test system: MDA-MB-231 breast
# [56] = test system: SK-OV-3 ovarian
# [57] = test system: CCRF-CEM leukemia
# [58] = test system: COLO 205 colon
structure (smiles),measurement,setting,value
Cc1ccc(Nc2nnc(-c3c[nH]c4ccccc34)o2)c(C)c1,GI50,[1],424 nM
same,TGI,[1],> 39100 nM
same,GI50,[2],445 nM
same,TGI,[2],12700 nM
same,GI50,[3],236 nM
same,TGI,[3],3240 nM
same,GI50,[4],326 nM
same,TGI,[4],2780 nM
same,GI50,[5],324 nM
same,TGI,[5],16000 nM
same,GI50,[6],435 nM
same,TGI,[6],19900 nM
same,GI50,[7],583 nM
same,TGI,[7],> 100000 nM
same,GI50,[8],46 nM
same,TGI,[8],250 nM
same,GI50,[9],478 nM
same,TGI,[9],7430 nM
same,GI50,[10],625 nM
same,TGI,[10],4560 nM
same,GI50,[11],274 nM
same,TGI,[11],17800 nM
same,GI50,[12],4030 nM
same,TGI,[12],> 100000 nM
same,GI50,[13],463 nM
same,TGI,[13],9100 nM
same,GI50,[14],375 nM
same,TGI,[14],7440 nM
same,GI50,[15],868 nM
same,TGI,[15],> 100000 nM
same,GI50,[16],639 nM
same,TGI,[16],31800 nM
same,GI50,[17],569 nM
same,TGI,[17],20400 nM
same,GI50,[18],530 nM
same,TGI,[18],57000 nM
same,GI50,[19],277 nM
same,TGI,[19],12200 nM
same,GI50,[20],483 nM
same,TGI,[20],38900 nM
same,GI50,[21],1450 nM
same,TGI,[21],> 100000 nM
same,GI50,[22],714 nM
same,TGI,[22],30900 nM
same,GI50,[23],756 nM
same,TGI,[23],24200 nM
same,GI50,[24],478 nM
same,TGI,[24],46200 nM
same,GI50,[25],14900 nM
same,TGI,[25],> 100000 nM
same,GI50,[26],283 nM
same,TGI,[26],13200 nM
same,GI50,[27],768 nM
same,TGI,[27],11300 nM
same,GI50,[28],170 nM
same,TGI,[28],16700 nM
same,GI50,[29],286 nM
same,TGI,[29],932 nM
same,GI50,[30],163 nM
same,TGI,[30],1210 nM
same,GI50,[31],443 nM
same,TGI,[31],13600 nM
same,GI50,[32],435 nM
same,TGI,[32],14500 nM
same,GI50,[33],333 nM
same,TGI,[33],9170 nM
same,GI50,[34],302 nM
same,TGI,[34],13300 nM
same,GI50,[35],18200 nM
same,TGI,[35],56600 nM
same,GI50,[36],307 nM
same,TGI,[36],3530 nM
same,GI50,[37],522 nM
same,TGI,[37],16500 nM
same,GI50,[38],323 nM
same,TGI,[38],18800 nM
same,GI50,[39],394 nM
same,TGI,[39],15400 nM
same,GI50,[40],300 nM
same,TGI,[40],1030 nM
same,GI50,[41],512 nM
same,TGI,[41],43700 nM
same,GI50,[42],8530 nM
same,TGI,[42],43600 nM
same,GI50,[43],664 nM
same,TGI,[43],> 45300 nM
same,GI50,[44],564 nM
same,TGI,[44],30600 nM
same,GI50,[45],475 nM
same,TGI,[45],24300 nM
same,GI50,[46],141 nM
same,TGI,[46],> 100000 nM
same,GI50,[47],325 nM
same,TGI,[47],> 100000 nM
same,GI50,[48],255 nM
same,TGI,[48],968 nM
same,GI50,[49],645 nM
same,TGI,[49],29200 nM
same,GI50,[50],80.1 nM
same,TGI,[50],> 100000 nM
same,GI50,[51],109 nM
same,TGI,[51],484 nM
same,GI50,[52],455 nM
same,TGI,[52],> 73100 nM
same,GI50,[53],353 nM
same,TGI,[53],15000 nM
same,GI50,[54],325 nM
same,TGI,[54],> 100000 nM
same,GI50,[55],620 nM
same,TGI,[55],15900 nM
same,GI50,[56],502 nM
same,TGI,[56],23800 nM
same,GI50,[57],311 nM
same,TGI,[57],> 35100 nM
same,GI50,[58],447 nM
same,TGI,[58],2950 nM
